# Data as given in ChEMBL document CHEMBL6153163, “Novel 6-Substituted-3-Phenylisoindolin-1-ones as Cbl-B Inhibitors for Treating Cancer” (ACS Med Chem Lett, 2025).
# Molecular target: E3 ubiquitin-protein ligase CBL-B (Homo sapiens, UniProt Q13191)
# Assay: Inhibition of biotin-tagged Cbl-B (unknown origin) pre-incubated with compound for 60 min followed by Lck addition and measured after 90 mins in presence of ATP by TR-FRET based assay
# Chain of E3 ubiquitin-protein ligase CBL-B (Q13191 whole entry): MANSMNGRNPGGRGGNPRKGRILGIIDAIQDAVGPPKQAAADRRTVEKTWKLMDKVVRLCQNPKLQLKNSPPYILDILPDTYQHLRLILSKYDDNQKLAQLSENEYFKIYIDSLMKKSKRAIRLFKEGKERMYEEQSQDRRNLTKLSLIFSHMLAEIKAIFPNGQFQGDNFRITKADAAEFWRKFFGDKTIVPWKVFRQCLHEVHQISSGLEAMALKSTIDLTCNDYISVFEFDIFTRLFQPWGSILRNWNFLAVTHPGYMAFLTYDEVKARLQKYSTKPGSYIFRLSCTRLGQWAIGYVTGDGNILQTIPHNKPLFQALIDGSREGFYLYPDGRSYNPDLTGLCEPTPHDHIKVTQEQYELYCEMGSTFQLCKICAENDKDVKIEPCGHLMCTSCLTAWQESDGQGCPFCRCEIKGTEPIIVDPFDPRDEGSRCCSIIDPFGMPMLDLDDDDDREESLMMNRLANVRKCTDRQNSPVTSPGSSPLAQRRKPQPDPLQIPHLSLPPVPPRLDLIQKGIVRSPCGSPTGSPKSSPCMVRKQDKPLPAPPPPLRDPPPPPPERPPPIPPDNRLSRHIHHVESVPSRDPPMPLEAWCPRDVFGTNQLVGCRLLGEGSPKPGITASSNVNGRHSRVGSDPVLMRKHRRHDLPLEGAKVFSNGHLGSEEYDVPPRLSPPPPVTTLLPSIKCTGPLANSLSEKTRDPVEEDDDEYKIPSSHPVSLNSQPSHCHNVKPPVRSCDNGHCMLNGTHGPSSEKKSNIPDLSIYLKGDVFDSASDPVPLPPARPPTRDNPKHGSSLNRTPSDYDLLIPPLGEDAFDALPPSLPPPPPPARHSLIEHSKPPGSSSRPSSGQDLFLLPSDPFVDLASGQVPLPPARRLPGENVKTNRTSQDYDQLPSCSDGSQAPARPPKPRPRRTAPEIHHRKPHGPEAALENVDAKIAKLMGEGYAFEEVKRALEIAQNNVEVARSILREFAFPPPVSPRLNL
row,SMILES,IC50 [nM]
1,CC(C)CNCc1cc(Cl)c2c(c1)C(=O)N(c1cccc([C@H](c3nncn3C)[C@H]3C[C@@H](F)C3)c1)C2,4.3
2,Cn1cnnc1[C@]1(c2cccc(N3Cc4c(Cl)cc(CNCC5CCC5)cc4C3=O)c2)C[C@@H](Cl)C1,3.6
3,Cn1cnnc1[C@]1(c2cccc(N3Cc4c(Cl)cc(CNCC5CCC5)cc4C3=O)c2)C[C@H](Cl)C1,4.1
4,C[C@@H](NCc1cc2c(c(C(F)F)c1)CN(c1cccc([C@H](c3nncn3C)C3CC(F)C3)c1)C2=O)C1CCC1 (stereo partly specified),4.2
5,C[C@@H](NCc1cc2c(c(C(F)F)c1)CN(c1cccc([C@]3(c4nncn4C)C[C@H](Cl)C3)c1)C2=O)C1CCC1,4
6,CC(C)CNCc1cc(Cl)c2c(c1)C(=O)N(c1cccc([C@H](c3nncn3C)[C@H]3C[C@@H](CC#N)C3)c1)C2,4.2
